≈ marks a conversion by molar mass, not a printed value.
What was measured:
Format in all cases: cell-based
[1] = system: methicillin-sensitive Staphylococcus epidermidis (MSSE); assay: MIC, two-fold agar dilution (CLSI), clinical isolates
Excerpt: (§1) 1. The invention adopts the two-fold agar dilution method recommended by the operating procedure of antimicrobial susceptibility testing set by American Clinical and Laboratory Standards Institute (CLSI) to determine the Minimum Inhibitory Concentration (MIC) of the test samples against the tested strains.

[2] = system: Moraxella catarrhalis (BCA); assay: as above
Excerpt: as §1

[3] = system: methicillin-resistant Staphylococcus aureus (MRSA); assay: as above
Excerpt: as §1

[4] = system: methicillin-sensitive Staphylococcus aureus (MSSA); assay: as above
Excerpt: as §1

[5] = system: Enterococcus faecium (EFM); assay: as above
Excerpt: as §1

[6] = system: Streptococcus pneoumoniae (SPN); assay: as above
Excerpt: as §1

[7] = system: Escherichia coli (including ESBLs, non-ESBLs); assay: as above
Excerpt: as §1

[8] = system: methicillin-resistant Staphylococcus epidermidis (MRSE); assay: as above
Excerpt: as §1

[9] = system: Enterococcus faecalis (EFA); assay: as above
Excerpt: as §1

[10] = system: HCT-116 colorectal cancer cell line; assay: CCK-8 proliferation inhibition; settings: Homo sapiens, HCT-116, 72 h, concentration of 30 μM; 72 hours; CCK-8; read-out: HCT116 inhibition rate/%
Method: (1) HCT-116 colorectal cancer cell line, A549 lung cancer cell line, MGC-803 gastric cancer cell line, BEL-7402 liver cancer cell line, Jurkat T cell leukemia cell line, HL60 acute myeloid leukemia cell line, Hela cervical cancer cell line, MCF-7 breast cancer cell line, PC3 prostate cancer cell line and SAOS-2 osteosarcoma cell line were made into single cell suspension, 180 μL of which was inoculated into 96-well culture plate, which was cultured overnight in CO2 incubator (37° C., 5% CO2, 95% air).
(2) Each of the spiro three-membered ring, spiro five membered ring peptide deformylase inhibitors was dissolved in DMSO, and was further formulated into drug solution with required different final concentration using corresponding cell culture medium. The drug solutions were added to the above cells respectively (20 μL/well), with the control group added with 1‰ DMSO, and cultured in a CO2 incubator for 72 hours.
(3) After incubation for 72 hours, the culture solution was decanted, and 100 μL of 1:10 diluted CCK-8 solution was added.
Wherein, in step (1), the concentration of the single cell suspension was 2000 cells/well.
Wherein, in step (2), HCT-116 cells were cultured in McCoy's 5A medium (containing 10% newborn bovine serum, 1% double antibody); A549 and PC3 cells were cultured in F12 medium (containing 10% newborn bovine serum, 1% double antibody); MGC-803, BEL-7402, SAOS-2, Jurkat and HL60 cells were cultured in 1640 medium (containing 10% newborn bovine serum, 1% double antibody); and MCF-7 and Hela cells were cultured in DMEM high glucose medium (containing 10% newborn bovine serum, 1% double antibody).

CCCC[C@H](CN(O)C=O)C(=O)N1CC2(CC2)C[C@H]1C(=O)Nc1nc(C)cs1 [Example 19]
MIC (anti-bacterial activity) ([1]; strain MSSE 15-3): 0.125 µg/mL (≈ 0.306 µM) | MIC (anti-bacterial activity) ([1]; strain MSSE 15-4): 0.125 µg/mL (≈ 0.306 µM) | MIC (anti-bacterial activity) ([1]; strain MSSE 15-5): 0.03 µg/mL (≈ 0.0734 µM) | MIC (anti-bacterial activity) ([1]; strain MSSE 15-6): 0.015 µg/mL (≈ 0.0367 µM) | MIC (anti-bacterial activity) ([2]; strain BCA 14-1): 1 µg/mL (≈ 2.45 µM) | MIC (anti-bacterial activity) ([2]; strain BCA 14-4): 1 µg/mL (≈ 2.45 µM) | MIC (anti-bacterial activity) ([2]; strain BCA 14-5): 0.125 µg/mL (≈ 0.306 µM) | MIC (anti-bacterial activity) ([2]; strain BCA 14-6): 0.5 µg/mL (≈ 1.22 µM) | MIC (anti-bacterial activity) ([2]; strain BCA 14-7): 0.25 µg/mL (≈ 0.612 µM) | MIC (anti-bacterial activity) ([2]; strain BCA 14-8): 0.25 µg/mL (≈ 0.612 µM) | MIC (anti-bacterial activity) ([2]; strain BCA 14-10): 0.125 µg/mL (≈ 0.306 µM) | MIC (anti-bacterial activity) ([3]; strain MRSA 15-1): 0.125 µg/mL (≈ 0.306 µM) | MIC (anti-bacterial activity) ([3]; strain MRSA 15-2): 0.125 µg/mL (≈ 0.306 µM) | MIC (anti-bacterial activity) ([3]; strain MRSA 15-3): 0.03 µg/mL (≈ 0.0734 µM) | MIC (anti-bacterial activity) ([3]; strain MRSA 15-4): 0.25 µg/mL (≈ 0.612 µM) | MIC (anti-bacterial activity) ([4]; strain MSSA 15-3): 0.125 µg/mL (≈ 0.306 µM) | MIC (anti-bacterial activity) ([4]; strain MSSA 15-4): 0.125 µg/mL (≈ 0.306 µM) | MIC (anti-bacterial activity) ([4]; strain MSSA 15-5): 0.03 µg/mL (≈ 0.0734 µM) | MIC (anti-bacterial activity) ([4]; strain MSSA 15-6): 0.25 µg/mL (≈ 0.612 µM) | MIC (anti-bacterial activity) ([5]; strain EFM 15-1): 8 µg/mL (≈ 19.6 µM) | MIC (anti-bacterial activity) ([5]; strain EFM 15-2): 4 µg/mL (≈ 9.79 µM) | MIC (anti-bacterial activity) ([5]; strain EFM 15-3): 0.25 µg/mL (≈ 0.612 µM) | MIC (anti-bacterial activity) ([5]; strain EFM 15-4): 2 µg/mL (≈ 4.9 µM) | MIC (anti-bacterial activity) ([5]; strain EFM 15-5): 0.25 µg/mL (≈ 0.612 µM) | MIC (anti-bacterial activity) ([5]; strain EFM 15-6): 2 µg/mL (≈ 4.9 µM) | MIC (anti-bacterial activity) ([6]; strain SPN 16-2): 4 µg/mL (≈ 9.79 µM) | MIC (anti-bacterial activity) ([6]; strain SPN 16-4): 0.25 µg/mL (≈ 0.612 µM) | MIC (anti-bacterial activity) ([7]; strain ECO+ 15-1): 32 µg/mL (≈ 78.3 µM) | MIC (anti-bacterial activity) ([7]; strain ECO+ 15-2): > 32 µg/mL | MIC (anti-bacterial activity) ([7]; strain ECO+ 15-3): > 32 µg/mL | MIC (anti-bacterial activity) ([7]; strain ECO+ 15-4): > 32 µg/mL | MIC (anti-bacterial activity) ([7]; strain ECO− 15-1): > 32 µg/mL | MIC (anti-bacterial activity) ([7]; strain ECO− 15-2): > 32 µg/mL | MIC (anti-bacterial activity) ([7]; strain ECO− 15-3): > 32 µg/mL | MIC (anti-bacterial activity) ([7]; strain ECO− 15-4): > 32 µg/mL | MIC (anti-bacterial activity) ([8]; strain MRSE 15-1): 0.06 µg/mL (≈ 0.147 µM) | MIC (anti-bacterial activity) ([8]; strain MRSE 15-2): 0.125 µg/mL (≈ 0.306 µM) | MIC (anti-bacterial activity) ([8]; strain MRSE 15-3): 0.125 µg/mL (≈ 0.306 µM) | MIC (anti-bacterial activity) ([8]; strain MRSE 15-7): 0.125 µg/mL (≈ 0.306 µM) | MIC (anti-bacterial activity) ([9]; strain EFA 15-1): 8 µg/mL (≈ 19.6 µM) | MIC (anti-bacterial activity) ([9]; strain EFA 15-2): 8 µg/mL (≈ 19.6 µM) | MIC (anti-bacterial activity) ([9]; strain EFA 15-3): 8 µg/mL (≈ 19.6 µM) | MIC (anti-bacterial activity) ([9]; strain EFA 15-4): 8 µg/mL (≈ 19.6 µM) | MIC (anti-bacterial activity) ([9]; strain EFA 15-5): 8 µg/mL (≈ 19.6 µM) | MIC (anti-bacterial activity) ([9]; strain EFA 15-6): 8 µg/mL (≈ 19.6 µM) | MIC (anti-bacterial activity) ([9]; strain EFA 15-9): 8 µg/mL (≈ 19.6 µM) | inhibition at 30 µM [10]: 6%

CCCC[C@H](CN(O)C=O)C(=O)N1CC2(CC2)C[C@H]1C(=O)Nc1cc(C)on1 [Example 21, (S)-5-((R)-2-((N-hydroxyformamido)methyl)hexanoyl)-N-(5-methylisoxazol-3yl)-5-spiro[2.4]heptane-6-carboxamide]
MIC (anti-bacterial activity) ([1]; strain MSSE 15-3): 0.5 µg/mL (≈ 1.27 µM) | MIC (anti-bacterial activity) ([1]; strain MSSE 15-4): 0.25 µg/mL (≈ 0.637 µM) | MIC (anti-bacterial activity) ([1]; strain MSSE 15-5): 0.03 µg/mL (≈ 0.0764 µM) | MIC (anti-bacterial activity) ([1]; strain MSSE 15-6): 0.03 µg/mL (≈ 0.0764 µM) | MIC (anti-bacterial activity) ([2]; strain BCA 14-1): 0.5 µg/mL (≈ 1.27 µM) | MIC (anti-bacterial activity) ([2]; strain BCA 14-4): 0.5 µg/mL (≈ 1.27 µM) | MIC (anti-bacterial activity) ([2]; strain BCA 14-5): 0.5 µg/mL (≈ 1.27 µM) | MIC (anti-bacterial activity) ([2]; strain BCA 14-6): 0.5 µg/mL (≈ 1.27 µM) | MIC (anti-bacterial activity) ([2]; strain BCA 14-7): 0.5 µg/mL (≈ 1.27 µM) | MIC (anti-bacterial activity) ([2]; strain BCA 14-8): 0.5 µg/mL (≈ 1.27 µM) | MIC (anti-bacterial activity) ([2]; strain BCA 14-10): 0.5 µg/mL (≈ 1.27 µM) | MIC (anti-bacterial activity) ([3]; strain MRSA 15-1): 0.25 µg/mL (≈ 0.637 µM) | MIC (anti-bacterial activity) ([3]; strain MRSA 15-2): 0.5 µg/mL (≈ 1.27 µM) | MIC (anti-bacterial activity) ([3]; strain MRSA 15-3): 0.5 µg/mL (≈ 1.27 µM) | MIC (anti-bacterial activity) ([3]; strain MRSA 15-4): 0.5 µg/mL (≈ 1.27 µM) | MIC (anti-bacterial activity) ([4]; strain MSSA 15-3): 0.5 µg/mL (≈ 1.27 µM) | MIC (anti-bacterial activity) ([4]; strain MSSA 15-4): 0.25 µg/mL (≈ 0.637 µM) | MIC (anti-bacterial activity) ([4]; strain MSSA 15-5): 0.25 µg/mL (≈ 0.637 µM) | MIC (anti-bacterial activity) ([4]; strain MSSA 15-6): 0.5 µg/mL (≈ 1.27 µM) | MIC (anti-bacterial activity) ([5]; strain EFM 15-1): 0.5 µg/mL (≈ 1.27 µM) | MIC (anti-bacterial activity) ([5]; strain EFM 15-2): 1 µg/mL (≈ 2.55 µM) | MIC (anti-bacterial activity) ([5]; strain EFM 15-3): 0.5 µg/mL (≈ 1.27 µM) | MIC (anti-bacterial activity) ([5]; strain EFM 15-4): 1 µg/mL (≈ 2.55 µM) | MIC (anti-bacterial activity) ([5]; strain EFM 15-5): 0.5 µg/mL (≈ 1.27 µM) | MIC (anti-bacterial activity) ([5]; strain EFM 15-6): 2 µg/mL (≈ 5.1 µM) | MIC (anti-bacterial activity) ([6]; strain SPN 16-2): 4 µg/mL (≈ 10.2 µM) | MIC (anti-bacterial activity) ([6]; strain SPN 16-4): 0.5 µg/mL (≈ 1.27 µM) | MIC (anti-bacterial activity) ([7]; strain ECO+ 15-1): 32 µg/mL (≈ 81.5 µM) | MIC (anti-bacterial activity) ([7]; strain ECO+ 15-2): 32 µg/mL (≈ 81.5 µM) | MIC (anti-bacterial activity) ([7]; strain ECO+ 15-3): 64 µg/mL (≈ 163 µM) | MIC (anti-bacterial activity) ([7]; strain ECO+ 15-4): 64 µg/mL (≈ 163 µM) | MIC (anti-bacterial activity) ([7]; strain ECO− 15-1): 64 µg/mL (≈ 163 µM) | MIC (anti-bacterial activity) ([7]; strain ECO− 15-2): 64 µg/mL (≈ 163 µM) | MIC (anti-bacterial activity) ([7]; strain ECO− 15-3): 64 µg/mL (≈ 163 µM) | MIC (anti-bacterial activity) ([7]; strain ECO− 15-4): 64 µg/mL (≈ 163 µM) | MIC (anti-bacterial activity) ([8]; strain MRSE 15-1): 0.25 µg/mL (≈ 0.637 µM) | MIC (anti-bacterial activity) ([8]; strain MRSE 15-2): 0.25 µg/mL (≈ 0.637 µM) | MIC (anti-bacterial activity) ([8]; strain MRSE 15-3): 0.25 µg/mL (≈ 0.637 µM) | MIC (anti-bacterial activity) ([8]; strain MRSE 15-7): 0.25 µg/mL (≈ 0.637 µM) | MIC (anti-bacterial activity) ([9]; strain EFA 15-1): 16 µg/mL (≈ 40.8 µM) | MIC (anti-bacterial activity) ([9]; strain EFA 15-2): 16 µg/mL (≈ 40.8 µM) | MIC (anti-bacterial activity) ([9]; strain EFA 15-3): 1 µg/mL (≈ 2.55 µM) | MIC (anti-bacterial activity) ([9]; strain EFA 15-4): 16 µg/mL (≈ 40.8 µM) | MIC (anti-bacterial activity) ([9]; strain EFA 15-5): 16 µg/mL (≈ 40.8 µM) | MIC (anti-bacterial activity) ([9]; strain EFA 15-6): 4 µg/mL (≈ 10.2 µM) | MIC (anti-bacterial activity) ([9]; strain EFA 15-9): 4 µg/mL (≈ 10.2 µM) | inhibition at 30 µM [10]: 8%

Source: US10738028B2, “Spiro three-membered ring, spiro five-membered ring peptide deformylase inhibitor and use thereof in antibacteria and anti-tumor” (priority 2016, dated 2020)
